Experimental data from patent US10294202B2, “Pyrrolidinones as herbicides” (FMC Corporation, priority 2013, dated 2019).

How the values were obtained:
[1] = test system: corn; test: Test C pre-/postemergence herbicide test; format: in vivo, Zea mays
Procedure, shortened: (§1)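 Visual rating, 0 (no effect) to 100 (complete control), versus untreated controls after 13 to 15 days in the greenhouse. Pre: seeds in loam/sand, sprayed at planting. Post: 1- to 4-leaf plants (2 to 18 cm) in peat-based mix. Compounds in non-phytotoxic solvent plus surfactant.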

[2] = test system: morningglory; test: Test C pre-/postemergence herbicide test; format: in vivo, Ipomoea coccinea
Procedure, shortened: as §1

[3] = test system: pigweed; test: Test C pre-/postemergence herbicide test; format: in vivo, Amaranthus retroflexus
Procedure, shortened: as §1

[4] = test system: velvetleaf; test: Test C pre-/postemergence herbicide test; format: in vivo, Abutilon theophrasti
Procedure, shortened: as §1

[5] = test system: barnyardgrass; test: Test C pre-/postemergence herbicide test; format: in vivo, Echinochloa crus-galli
Procedure, shortened: as §1

[6] = test system: soybean; test: Test C pre-/postemergence herbicide test; format: in vivo, Glycine max
Procedure, shortened: as §1

[7] = test system: oat, wild; test: Test C pre-/postemergence herbicide test; format: in vivo, Avena fatua; settings: Postemergence
Procedure, shortened: as §1

[8] = test system: rice; test: Test B flooded paddy test; format: in vivo, Oryza sativa; settings: Flood, scale of 0 to 100 where 0 is no effect and 100 is complete control
Procedure, shortened: (§2)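 Paddy-water application at a 3 cm flood, young plants having two leaves. Water level maintained; greenhouse, 13–15 days; visual 0–100 control rating.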

[9] = test system: waterhemp; test: Test C pre-/postemergence herbicide test; format: in vivo, Amaranthus rudis
Procedure, shortened: as §1

[10] = test system: oilseed rape; test: Test C pre-/postemergence herbicide test; format: in vivo, Brassica napus
Procedure, shortened: as §1

[11] = test system: ducksalad; test: Test B flooded paddy test; format: in vivo, Heteranthera limosa; settings: Flood, scale of 0 to 100 where 0 is no effect and 100 is complete control
Procedure, shortened: as §2

[12] = test system: wheat (winter wheat); test: Test C pre-/postemergence herbicide test; format: in vivo, Triticum aestivum
Procedure, shortened: as §1

[13] = Postemergence, 31 g ai/ha, scale 0 to 100 (0 no effect, 100 complete control)
[14] = Postemergence, 62 g ai/ha, scale 0 (no effect) to 100 (complete control)
[15] = Postemergence, 125 g ai/ha, scale 0 to 100 (0 no effect, 100 complete control)
[16] = Postemergence, 250 g ai/ha, scale 0 to 100 (0 no effect, 100 complete control)
[17] = Preemergence, 31 g ai/ha, scale 0 to 100, 0 is no effect and 100 is complete control
[18] = Preemergence, 62 g ai/ha, scale 0 to 100 (0 no effect, 100 complete control)
[19] = Preemergence, 125 g ai/ha, scale 0 to 100 (0 no effect, 100 complete control)
[20] = 125 g ai/ha, scale 0 to 100 (0 no effect, 100 complete control)
[21] = 250 g ai/ha, scale 0 to 100 (0 no effect, 100 complete control)
[22] = Postemergence, 31 g ai/ha, scale 0 (no effect) to 100 (complete control)
[23] = Postemergence, 62 g ai/ha, scale 0 to 100 (0 no effect, 100 complete control)
[24] = Preemergence, 62 g ai/ha, scale 0 to 100

Structure (SMILES): CN1CC(c2cccc(C(F)(F)F)c2)C(C(=O)Nc2cccc(F)c2F)C1=O (centres unmarked) [Compound 305]
- Plant response rating, Corn [1, 13]: 0
- Plant response rating, Corn [1, 14]: 5
- Plant response rating, Corn [1, 15]: 40
- Plant response rating, Corn [1, 16]: 45
- Corn plant response rating [1, 17]: 65
- Corn plant response rating [1, 18]: 75
- Plant response rating, Corn [1, 19]: 75
- Plant response rating (scale of 0 to 100), Corn ([1]; Preemergence, 250 g ai/ha): 80
- Plant response rating, Morningglory [2, 13]: 25
- Plant response rating, Morningglory [2, 14]: 20
- Plant response rating, Morningglory [2, 15]: 75
- Plant response rating, Morningglory [2, 16]: 20
- Morningglory plant response rating [2, 17]: 0
- Morningglory plant response rating [2, 18]: 30
- Plant response rating, Morningglory [2, 19]: 40
- Plant response rating (scale of 0 to 100), Morningglory ([2]; Preemergence, 250 g ai/ha): 65
- Plant response rating, Pigweed [3, 13]: 55
- Plant response rating, Pigweed [3, 14]: 60
- Plant response rating, Pigweed [3, 15]: 65
- Plant response rating, Pigweed [3, 16]: 65
- Pigweed plant response rating [3, 17]: 10
- Pigweed plant response rating [3, 18]: 70
- Plant response rating, Pigweed [3, 19]: 80
- Plant response rating (scale of 0 to 100), Pigweed ([3]; Preemergence, 250 g ai/ha): 85
- Plant response rating, Velvetleaf [4, 13]: 10
- Plant response rating, Velvetleaf [4, 14]: 40
- Plant response rating, Velvetleaf [4, 15]: 40
- Plant response rating, Velvetleaf [4, 16]: 65
- Velvetleaf plant response rating [4, 17]: 25
- Velvetleaf plant response rating [4, 18]: 30
- Plant response rating, Velvetleaf [4, 19]: 55
- Plant response rating (scale of 0 to 100), Velvetleaf ([4]; Preemergence, 250 g ai/ha): 55
- Plant response rating, Barnyardgrass [5, 13]: 20
- Plant response rating, Barnyardgrass [5, 14]: 55
- Plant response rating, Barnyardgrass [5, 15]: 70
- Plant response rating, Barnyardgrass [5, 16]: 80
- Barnyardgrass plant response rating [5, 17]: 90
- Barnyardgrass plant response rating [5, 18]: 95
- Plant response rating, Barnyardgrass [5, 19]: 95
- Plant response rating (scale of 0 to 100; 0 is no effect, 100 is complete control), Barnyardgrass ([5]; Preemergence, 250 g ai/ha): 98
- Plant response rating, Soybean [6, 13]: 10
- Plant response rating, Soybean [6, 14]: 0
- Plant response rating, Soybean [6, 15]: 0
- Plant response rating, Soybean [6, 16]: 0
- Soybean plant response rating [6, 17]: 0
- Soybean plant response rating [6, 18]: 0
- Plant response rating, Soybean [6, 19]: 0
- Plant response rating (scale of 0 to 100), Soybean ([6]; Preemergence, 250 g ai/ha): 0
- Plant response rating, Oat, Wild ([7]; 31 g ai/ha, scale 0 to 100 (0 no effect, 100 complete control)): 0
- Plant response rating, Oat, Wild ([7]; 62 g ai/ha, scale 0 (no effect) to 100 (complete control)): 0
- Plant response rating, Oat, Wild [7, 20]: 0
- Plant response rating, Oat, Wild [7, 21]: 30
- Plant response rating, Rice ([8]; 500 g ai/ha): 15
- Plant response rating, Waterhemp [9, 13]: 10
- Plant response rating, Waterhemp [9, 14]: 10
- Plant response rating, Waterhemp [9, 15]: 35
- Plant response rating, Waterhemp [9, 16]: 40
- Waterhemp plant response rating [9, 17]: 40
- Waterhemp plant response rating [9, 18]: 65
- Plant response rating, Waterhemp [9, 19]: 80
- Plant response rating (scale of 0 to 100), Waterhemp ([9]; Preemergence, 250 g ai/ha): 80
- Plant response rating, Oilseed Rape [10, 13]: 0
- Plant response rating, Oilseed Rape [10, 14]: 0
- Plant response rating, Oilseed Rape [10, 15]: 0
- Plant response rating, Oilseed Rape [10, 16]: 0
- Oilseed Rape plant response rating [10, 17]: 20
- Oilseed Rape plant response rating [10, 18]: 60
- Plant response rating, Oilseed Rape [10, 19]: 80
- Plant response rating (scale of 0 to 100), Oilseed Rape ([10]; Preemergence, 250 g ai/ha): 90
- Plant response rating, Ducksalad ([11]; 500 g ai/ha): 100
- Plant response rating, Wheat [12, 13]: 0
- Plant response rating, Wheat [12, 14]: 0
- Plant response rating, Wheat [12, 15]: 0
- Plant response rating, Wheat [12, 16]: 5
- Wheat plant response rating [12, 17]: 45
- Wheat plant response rating [12, 18]: 90
- Plant response rating (scale of 0 to 100), Wheat ([12]; Preemergence, 250 g ai/ha): 90

Structure (SMILES): O=C1NCC(c2ccc(C(F)(F)F)cc2)C1C(=O)Nc1ccccc1F (centres unmarked) [Compound 79, N-(2-fluorophenyl)-2-oxo-4-[4-(trifluoromethyl)phenyl]-3-pyrrolidinecarboxamide]
- Plant response rating, Corn [1, 22]: 0
- Plant response rating, Corn [1, 23]: 0
- Plant response rating, Corn [1, 15]: 0
- Plant response rating, Corn [1, 16]: 0
- Corn plant response rating [1, 17]: 0
- Plant response rating, Corn [1, 24]: 0
- Plant response rating, Corn [1, 19]: 10
- Plant response rating (scale of 0 to 100), Corn ([1]; Preemergence, 250 g ai/ha): 30
- Plant response rating, Morningglory [2, 22]: 0
- Plant response rating, Morningglory [2, 23]: 0
- Plant response rating, Morningglory [2, 15]: 5
- Plant response rating, Morningglory [2, 16]: 5
- Morningglory plant response rating [2, 17]: 0
- Plant response rating, Morningglory [2, 24]: 0
- Plant response rating, Morningglory [2, 19]: 0
- Plant response rating (scale of 0 to 100), Morningglory ([2]; Preemergence, 250 g ai/ha): 0
- Plant response rating, Pigweed [3, 22]: 35
- Plant response rating, Pigweed [3, 23]: 35
- Plant response rating, Pigweed [3, 15]: 35
- Plant response rating, Pigweed [3, 16]: 35
- Pigweed plant response rating [3, 17]: 10
- Plant response rating, Pigweed [3, 24]: 40
- Plant response rating, Pigweed [3, 19]: 50
- Plant response rating (scale of 0 to 100), Pigweed ([3]; Preemergence, 250 g ai/ha): 65
- Plant response rating, Velvetleaf [4, 22]: 0
- Plant response rating, Velvetleaf [4, 23]: 0
- Plant response rating, Velvetleaf [4, 15]: 0
- Plant response rating, Velvetleaf [4, 16]: 0
- Velvetleaf plant response rating [4, 17]: 0
- Plant response rating, Velvetleaf [4, 24]: 0
- Plant response rating, Velvetleaf [4, 19]: 20
- Plant response rating (scale of 0 to 100), Velvetleaf ([4]; Preemergence, 250 g ai/ha): 35
- Plant response rating, Barnyardgrass [5, 22]: 0
- Plant response rating, Barnyardgrass [5, 23]: 0
- Plant response rating, Barnyardgrass [5, 15]: 35
- Plant response rating, Barnyardgrass [5, 16]: 60
- Barnyardgrass plant response rating [5, 17]: 40
- Plant response rating, Barnyardgrass [5, 24]: 95
- Plant response rating, Barnyardgrass [5, 19]: 95
- Plant response rating (scale of 0 to 100; 0 is no effect, 100 is complete control), Barnyardgrass ([5]; Preemergence, 250 g ai/ha): 98
- Plant response rating, Soybean [6, 22]: 0
- Plant response rating, Soybean [6, 23]: 0
- Plant response rating, Soybean [6, 15]: 10
- Plant response rating, Soybean [6, 16]: 10
- Soybean plant response rating [6, 17]: 0
- Plant response rating, Soybean [6, 24]: 0
- Plant response rating, Soybean [6, 19]: 0
- Plant response rating (scale of 0 to 100), Soybean ([6]; Preemergence, 250 g ai/ha): 0
- Plant response rating, Oat, Wild ([7]; 31 g ai/ha, scale 0 (no effect) to 100 (complete control)): 0
- Plant response rating, Oat, Wild ([7]; 62 g ai/ha, scale 0 to 100 (0 no effect, 100 complete control)): 0
- Plant response rating, Oat, Wild [7, 20]: 0
- Plant response rating, Oat, Wild [7, 21]: 0
- Plant response rating, Rice ([8]; 250 g ai/ha): 0
- Plant response rating, Waterhemp [9, 22]: 10
- Plant response rating, Waterhemp [9, 23]: 10
- Plant response rating, Waterhemp [9, 15]: 10
- Plant response rating, Waterhemp [9, 16]: 30
- Waterhemp plant response rating [9, 17]: 25
- Plant response rating, Waterhemp [9, 24]: 40
- Plant response rating, Waterhemp [9, 19]: 80
- Plant response rating (scale of 0 to 100), Waterhemp ([9]; Preemergence, 250 g ai/ha): 85
- Plant response rating, Oilseed Rape [10, 22]: 0
- Plant response rating, Oilseed Rape [10, 23]: 0
- Plant response rating, Oilseed Rape [10, 15]: 0
- Plant response rating, Oilseed Rape [10, 16]: 0
- Oilseed Rape plant response rating [10, 17]: 0
- Plant response rating, Oilseed Rape [10, 24]: 5
- Plant response rating, Oilseed Rape [10, 19]: 70
- Plant response rating (scale of 0 to 100), Oilseed Rape ([10]; Preemergence, 250 g ai/ha): 80
- Plant response rating, Ducksalad ([11]; 250 g ai/ha): 90
- Plant response rating, Wheat [12, 22]: 0
- Plant response rating, Wheat [12, 23]: 0
- Plant response rating, Wheat [12, 15]: 0
- Plant response rating, Wheat [12, 16]: 0
- Wheat plant response rating [12, 17]: 10
- Plant response rating, Wheat [12, 24]: 40
- Plant response rating, Wheat [12, 19]: 60
- Plant response rating (scale of 0 to 100), Wheat ([12]; Preemergence, 250 g ai/ha): 75
